In assay [1] the test system is E. faecalis ATCC 29212. The note with it: ATCC 29212. From the text: (§1) The bacterial strains; Fusobacterium nucleatum ATCC 25586, Streptococcus mutans Ingbritt, Staphylococcus aureus (MSSA) ATCC 29213; Staphylococcus aureus (MRSA) ATCC 43300; Enterococcus faecalis ATCC 29212; Enterobacter aerogenes ATCC 13048; Pseudomonas aeruginosa strain PAO1-LAC, ATCC 47085; Klebsiella pneumoniae ATCC 13883; Acinetobacter baumannii strain 2208, ATCC 19606; Escherichia coli ATCC 25922 lyophilised or glycerol stocks were obtained from the culture collection of the Oral Health Cooperative Research Centre, The Melbourne Dental School, University of Melbourne, Australia. These strains were selected for this study as they are widely used in antimicrobial studies and are considered to be important pathogens and major targets for antibiotic resistant studies. Bacteria were grown aerobically and maintained by passage at ambient temperature (E. coli, K. pneumoniae, A. baumannii and S. aureus strains) or at 37°C (P. aeruginosa, E. faecalis and E. aerogenes) on horse blood agar (10% v/v defibrinated horse blood, 4.4% w/v Oxoid Blood Agar Base No. 2). S. mutans and F. nucleatum were grown anaerobically (MK3 anaerobic workstation, Don Whitley Scientific Limited, England) and maintained by passage at 37°C on Todd Hewitt agar (3.6% w/v Oxoid Todd-Hewitt Broth, 1.5% w/v sucrose, 1.5% w/v BactoTM Agar, 0.8% w/v Oxoid Yeast Extract) or horse blood agar, respectively. For the antimicrobial peptide assays a 20 mL starter culture was produced by taking single colonies from blood or Todd Hewitt agar plates, respectively, to inoculate either: Luria Broth (LB; 1% w/v BactoTM Tryptone, 1% w/v NaCl, 0.5% w/v Oxoid Yeast Extract, pH 7.5, Thermo Scientific Pty, Ltd, Sydney, Australia) for bacteria; E. coli, K. pneumoniae, P. aeruginosa, A. baumannii, E. faecalis, E. aerogenes and S. aureus which were grown aerobically at 37°C, or Todd Hewitt broth (3.6% w/v Oxoid Todd-Hewitt Broth, 1.5% w/v sucrose, 0.8% w/v Oxoid Yeast 9 Extract) for S. mutans, or Brain Heart Infusion broth (BHI; 3.7% w/v Oxoid BHI, 0.05% w/v L-cysteine) for F. nucleatum which were both grown anaerobically at 37°C. After overnight incubation, 0.5–2.0 mL of the starter culture was used to inoculate the appropriate fresh broth (200 mL) and growth monitored at 650 nm using a spectrophotometer (model 275E; Perkin-Elmer, Sydney, Australia) with culture purity checked by microscopic examination and culture. Bacteria were harvested during late exponential growth phase and viability and bacteria/mL determined using a BacLight viability kit (Invitrogen, Sydney, Australia) and a Quanta SC-MPL flow cytometer (Beckman coulter Pty, Ltd, Sydney, Australia).
(§2) Antibacterial assays were undertaken to determinate the minimum inhibitory concentration (MIC), minimum bactericidal concentration (MBC) and minimum membrane disruptive concentration (MDC) of each of the antimicrobial peptides (AMP) and AMP analogues (S1 Table). For each bacterim a stock solution (2.5 × 10^6 cells/mL) in the respective media was made and an aliquot incubated with AMPs within 15 minutes from viable cell count and stock preparation. All AMPs were dissolved in DMSO and a 500 μM stock solution prepared by adding the respective media and serial dilutions (250–0.244 μM) of the AMP in media (100 μL/well) made just prior addition of bacteria. […] One hundred microliter aliquots of the bacterial stock solution (2.5 × 10^5 cells/well) were added to the AMP serial dilutions and incubated at 37°C for 90 min. Assay preparation and incubations were conducted in aerobic or anaerobic conditions dependent on the bacteria. Bacteria were also incubated in the absence of AMP to serve as a growth control for the assay. After the 90 minute incubation period the antimicrobial activity (MIC, MBC and MDC) was determined as follows;
(§3) For determination of MBC, the CLSI protocol was followed, with the modifications being that due to the rapid action of the AMPs the assay incubation time was shortened from 16–20 hours to 90 minutes.

In assay [2] the test system is P. aeruginosa strain PAO1-LAC, ATCC 47085. The note with it: PAO1.
From the text: as §1, §2, §3

Assay [3] concerns K. pneumoniae ATCC 13883. The note with it: ATCC 13883.
From the text: as §1, §2, §3

Assay [4] deals with S. aureus (MRSA) ATCC 43300. The note with it: ATCC 43300.
From the text: as §1, §2, §3

Assay [5] relates to E. coli ATCC 25922. The note with it: ATCC 25922.
From the text: as §1, §2, §3

Assay [6] concerns S. mutans Ingbritt. The note with it: Ingbritt.
From the text: as §1, §2, §3

Assay [7] has as its system S. aureus (MSSA) ATCC 29213. The note with it: ATCC 29213.
From the text: as §1, §2, §3

The subject of assay [8] is A. baumannii strain 2208, ATCC 19606. The note with it: ATCC 19606.
From the text: as §1, §2, §3

In assay [9] the test system is F. nucleatum ATCC 25586. The note with it: ATCC 25586.
From the text: as §1, §2, §3

Assay [10] deals with E. aerogenes ATCC 13048. The note with it: ATCC 13048.
From the text: as §1, §2, §3

In assay [11] the test system is E. faecalis ATCC 29212. The note with it: ATCC 29212, 24 h.
From the text: as §1, §2
(§4) For MIC the CLSI broth microdilution assay was followed as we have previously described.

The subject of assay [12] is P. aeruginosa strain PAO1-LAC, ATCC 47085. The note with it: PAO1, 24 h.
From the text: as §1, §2, §4

In assay [13] the test system is K. pneumoniae ATCC 13883. The note with it: ATCC 13883, 24 h.
From the text: as §1, §2, §4

In assay [14] the test system is S. aureus (MRSA) ATCC 43300. The note with it: ATCC 43300, 24 h.
From the text: as §1, §2, §4

Assay [15] relates to E. coli ATCC 25922. The note with it: ATCC 25922, 24 h.
From the text: as §1, §2, §4

Assay [16] deals with S. mutans Ingbritt. The note with it: Ingbritt, 24 h.
From the text: as §1, §2, §4

In assay [17] the test system is S. aureus (MSSA) ATCC 29213. The note with it: ATCC 29213, 24 h.
From the text: as §1, §2, §4

The subject of assay [18] is A. baumannii strain 2208, ATCC 19606. The note with it: ATCC 19606, 24 h.
From the text: as §1, §2, §4

Assay [19] deals with F. nucleatum ATCC 25586. The note with it: ATCC 25586, 24 h.
From the text: as §1, §2, §4

For assay [20], the system named is E. aerogenes ATCC 13048. The note with it: ATCC 13048, 24 h.
From the text: as §1, §2, §4

Marks after values point to notes of the source that are not given here. Where no end group is shown, it is not given here.

In the case of KNLRRIIRKIIHIIKKYG [Ovispirin], the minimal bactericidal concentration (MBC) in [1] was 72.4 ± 13.7 µM; in assay [2] it was 95.9 ± 9.8 µM; in assay [3], 21.7 ± 3.7 µM; in assay [4], above 250 µM; in assay [5], 8.5 ± 0.7 µM; in assay [6], 11.3 ± 5.3 µM. Further, the minimum bactericidal concentration (MBC) is 139.7 ± 25.8 µM in assay [7], 2.0 ± 1.0 µM in assay [8], 4.7 ± 3.5 µM in assay [9] and 135.2 ± 26.3 µM in assay [10]. For the same sequence, the MIC in assay [11] is 78.8 ± 40.7 µM; in assay [12] it was 90.6 ± 7.5 µM; in assay [13] it was 7.7±0.1^e μM; in [14] it was above 250 µM; in assay [15], 9.6 ± 3.9 µM; in assay [16] it was 16.5 ± 1.7 µM. In addition, the MIC is 138.5 ± 24.5 µM in assay [17], 2.6 ± 1.1 µM in [18], 4.2 ± 2.9 µM in [19] and 45.9±13.8^e μM in assay [20].

Values taken from paper PMC4795541, “A Rapid and Quantitative Flow Cytometry Method for the Analysis of Membrane Disruptive Antimicrobial Activity” (PLoS ONE, 2016).
